From US11464768B2, “Pimavanserin alone or in combination for use in the treatment of Alzheimer's disease psychosis” (ACADIA Pharmaceuticals Inc., priority 2016, dated 2022) come the findings set out here.

Data set [1] relates to ADP patients. Nature of the data set: Same twelve-week study: NPI-NH Agitation/Aggression subscale (Domain C). It counts as in vivo, human. The note with it: pimavanserin arm; placebo arm 0.47. The source says:
To determine the score for a given domain, the caregivers rate frequency and severity of the resident's behavior for that particular domain. The frequency is rated on a 0-4 point scale. For example, the frequency is rated as a) 0 for not present; b) 1 for occasional; c) 2 for often; d) 3 for frequent; and e) 4 for very frequent occurrence of the behavior in question. The severity is rated on a 1-3 point scale. For example, the severity is rated as a) 1 for mild; b) 2 for moderate; and 3 for severe. The score of each domain is determined by multiplying the frequency rating score by the severity rating score. The score of each domain ranges from 0 to 12.
A twelve-week, randomized, double-blind, placebo-controlled, single-center study was conducted in ADP patients in nursing homes. […]
Nursing home staff administered the study drug to the patient each morning as a single oral dose (2×17 mg tablets) beginning within 24 hours of completion of all baseline assessments (Day 1). […] Behavioral symptoms were assessed using the NPI-NH Total and Individual Behavioral Domain scores and the Cohen-Mansfield Agitation Inventory—Short Form (CMAI-SF). […] In addition, evaluation of activities of daily living (ADL) was evaluated using the Alzheimer's Disease Cooperative Study-ADL instrument (ADCS-ADL). […]

The subject of data set [2] is ADP patients. Nature of the data set: Same twelve-week study: safety assessment (adverse events). Particulars: for tolerability and safety profile: 34 mg once daily for twelve weeks, 181 patients in safety assessment. It counts as in vivo, human. The procedure:
Each patient participated in a 3-week screening period, a 12-week double-blind treatment period, and a 4-week follow-up period. The maximum duration of the study for each patient was approximately 19 weeks. Pimavanserin was administered in tablet form, once daily by mouth in 34 mg doses (2 tablets of 17 mg pimavanserin), equivalent to 40 mg pimavanserin tartrate. (2 tablets of 20 mg pimavanserin tartrate) Placebo was administered with visibly matching tablets, using the same route and regimen. The safety of subjects was assessed by monitoring adverse events, physical examinations, vital signs, clinical laboratory tests (hematology, clinical chemistry, and urinalysis), and electrocardiograms. Furthermore cognitive status was assessed via MMSE.
The results of the study were obtained from a majority of the 181 patients, some of the patients were excluded from the endpoint results but all 181 patients were included in the safety assessment.

For `CC(C)COc1ccc(CNC(=O)N(Cc2ccc(F)cc2)C2CCN(C)CC2)cc1` [Pimavanserin, N-(1-methylpiperidin-4-yl)-N-(4-fluorophenylmethyl)-N′-(4-(2-methylpropyloxy)phenylmethyl)carbamide], in data set [1], the “improvement on the Agitation/Aggression subscale (Domain C) of the NPI-NH” value was 1.13 points. For the same molecule, the “tolerability and safety profile” value in data set [2] is “safe and well tolerated”; in data set [2] (listed as pimavanserin) it was “well tolerated”. Also, the “effect on cognitive function or motor functions” value in data set [2] (pimavanserin arm (same in placebo arm)) is on record as “no negative effect on cognitive function or motor functions”. Besides, in data set [2] (pimavanserin arm, placebo arm 23.1%), the “adverse event: falls” value amounted to 23.3%. Moreover, the “adverse event: urinary tract infection” value in data set [2] (pimavanserin arm, placebo arm 27.5%) is recorded as 22.2%.
